Results on one molecule are retold here after publication PMC3402509 (Investigational New Drugs, 2011).

One data set has as its system NSCLC. The settings on record: dasatinib monotherapy, phase II; cited from earlier work.
Data set [1] in a line: Dasatinib pharmacokinetic studies in plasma. The class given is in vivo, patients. The settings on record: for Cmax: Cmax Geomean (%CV).
A further data set relates to SFK PY-416 (P-SFK). The data set is described as follows: P-SFK peripheral blood mononuclear cell. The class given is in vivo, patients. The settings on record: for P-SFK levels in PBMCs compared to same day pre-dasatinib dosing levels: day 15 (with cetuximab).

Like-named read-outs stand apart in the source and are kept apart here.

Take `Cc1nc(Nc2ncc(C(=O)Nc3c(C)cccc3Cl)s2)cc(N2CCN(CCO)CC2)n1` [dasatinib, N-(2-chloro-6-methyl-phenyl)-2-(6-(4-(2-hydroxyethyl)-piperazin-1-yl)-2-methylpyrimidin-4-ylamino)thiazole-5-carboxamide]: the “patients with either a partial response or SD” value in the data set with NSCLC was 43%. Further, the “DLT (patients)” value is, setting by setting: (dose level 1, dasatinib 100 mg once daily plus weekly cetuximab, 3 (3) patients (evaluable)) “None”; (dose level 2, dasatinib 150 mg once daily plus weekly cetuximab, 19 (14) patients (evaluable)) 1; (dose level 2, dasatinib 150 mg once daily plus weekly cetuximab, 19 (14) patients (evaluable), listed as Dasatinib) 1 (Headache); (dose level 3, dasatinib 200 mg once daily plus weekly cetuximab, 3 (2) patients (evaluable)) 2. The “T-HALF Mean (SD)” value in data set [1] (100 mg oral, Day 0 (alone), N=3) is listed as 6.8 (0.1) h; in data set [1] (100 mg oral, Day 15 (with cetuximab), N=3) it was 6.4 (0.1) h; in data set [1] (150 mg oral, Day 0 (alone), N=18), 5.2 (1.0) h; in data set [1] (200 mg oral, Day 0 (alone), N=3), 5.1 (0.6) h. The molecule also registered a half-life in data set [1] (human, plasma, po) of 5 to 6 h. Further, the Cmax in data set [1] (human, plasma, po, 100 mg, 100 mg oral, Day 0 (alone), N=3) amounted to 101 ng/mL; in data set [1] (human, plasma, po, 150 mg, 150 mg oral, Day 0 (alone), N=18), 144 ng/mL; in data set [1] (human, plasma, po, 200 mg, 200 mg oral, Day 0 (alone), N=3) it was 415 ng/mL. For the same molecule, the Tmax was 1 h in data set [1] (human, plasma, po, 100 mg, Tmax Med (Min, Max), 100 mg oral, Day 0 (alone), N=3); 1.5 h in data set [1] (human, plasma, po, 150 mg, Tmax Med (Min, Max), 150 mg oral, Day 0 (alone), N=18); 1 h in data set [1] (human, plasma, po, 200 mg, Tmax Med (Min, Max), 200 mg oral, Day 0 (alone), N=3); 1 to 2 h in data set [1] (human, plasma, po, Tmax, text summary over dose levels). In data set [1] (in vivo), the “PK parameters (AUC and T-HALF) given alone (day 0) versus in combination with cetuximab (day 15)” value was “comparable”. Besides, the “P-SFK levels in PBMCs compared to baseline” value in the data set on SFK PY-416 (P-SFK) (day 0, 4 hours following dasatinib dosing) is given as “tended to be reduced”; in the data set on SFK PY-416 (P-SFK) (day 0, 8 hours following dasatinib dosing) it was “significantly reduced”; in the data set with SFK PY-416 (P-SFK) (day 0, 24 hours following dasatinib dosing), “did not differ from baseline levels”. In addition, the “P-SFK levels in PBMCs compared to same day pre-dasatinib dosing levels” value in the data set on SFK PY-416 (P-SFK) (8 hours, P=0.03) is “significantly decreased”; in the data set on SFK PY-416 (P-SFK) (24 hours, P=0.18), “did not differ from pre-dasatinib dosing levels”.

By half-life is commonly meant the time in which the quantity being followed falls by half. A low value points to fast loss. As usually defined, the Cmax is the highest concentration seen after dosing. Broadly, the Tmax is the time at which the peak concentration occurs.
